According to a melting point compilation (Tetko et al.; mined from patent text by program, amines drawn as free bases though some values may be those of a salt):

Row | Structure (SMILES) | melting point [°C]
1 | CCCCN1CC(=O)N(c2cc(Cl)ccc2C)C1=S | 102 to 103
2 | CCOC(=O)C1=C(COCCNC(=O)N2CCN(C)CC2)NC(C)=C(C(=O)OC)C1c1ccccc1Cl (stereo not drawn) | 78 to 80
3 | CC(=O)Nc1cc(-c2ccncn2)c[nH]c1=O | > 250
4 | CCOC(=O)C(=O)Nc1c(C)oc2ccccc2c1=O | 100
5 | Nc1[nH]ncc1-c1cccc(N2CCOCC2)c1 | 166 to 168
6 | COc1cc(OC)c(-c2nc(C)no2)cc1C=O | 182 to 183
7 | CCN(CC)c1ccc(C=C2Cc3ccccc3C2=O)c(C)c1 | 134
8 | Cc1scc2c1N(C(=O)N1CCCC(CCCN(C)C)C1)c1ccccc1NC2=O (stereo not drawn) | 137 to 139
9 | CC12CCC(O)CC1=CCC1C2CCC2(C)C(c3cccnc3)=CCC12 (stereo not drawn) | 214 to 218
10 | CN(C)c1ccc(NS(=O)(=O)c2cccc(Br)c2)cc1 | 187 to 189
11 | CCOC(=O)C(=O)c1cc(Cl)cc2cccnc12 | 107 to 110
12 | Cc1ccc(Sc2cc3c(cc2Sc2ccc(C)cc2)C(=O)c2c(c(O)c4cc(Sc5ccc(C)cc5)c(Sc5ccc(C)cc5)cc4c2O)C3=O)cc1 | > 265
13 | Cc1ccc2c(c1)C(O)(c1ccccc1Cl)C(=O)N2 (stereo not drawn) | 295 to 300
14 | COc1cc(C=C2C(=O)CCc3c2ccc(OC)c3OC)c([N+](=O)[O-])cc1OC | 70 to 72
15 | CCC(=O)N1C(=S)NC(C)=C(C(=O)OC)C1c1cccc([N+](=O)[O-])c1 (stereo not drawn) | 167 to 171
16 | CCCc1ccc(-c2c(-c3ccc(S(C)(=O)=O)cc3)cnn(CC(F)(F)F)c2=O)cc1 | 64 to 66
17 | COc1ccc(C2=NN(CCCCOc3ccc(C4=NNC(=O)C4(C)C)c(F)c3F)C(=O)C2(C)C)c2cc(C(F)(F)F)sc12 | 167 to 168
18 | CC(C)(C)c1ccc(N)nn1 | 125 to 132
19 | Nc1nc(N)nc(-c2ccc(-c3ccccc3)s2)n1 | > 250
20 | O=c1[nH][nH]c(=O)n1-c1cc(Cl)cc(Cl)c1 | 260
21 | CC(=NO)C(C)(C)NCCN(C)NC(C)(C)C(C)=NO | 130 to 131
22 | O=C(C(Cl)Cl)N1CCCCCC1 | 56

Row | Structure (SMILES) | melting point [°C]
23 | CCCCOc1c(CNC(=O)OC(C)(C)C)n(CC(C)C)c(=O)c2ccc(-c3nc(C)c(C(=O)O)s3)cc12 | 107 to 109
24 | O=C(OCc1ccccc1)c1ncn2c1[C@@H]1CCCN1C(=O)c1c(Cl)cccc1-2 | 141 to 142
25 | Cc1cc(C)cc(Sc2c(C(C)C)c(=O)[nH]c(=O)n2CC2=CCC(CO)C2)c1 (stereo not drawn) | 147 to 148
26 | CN(O)C(=O)Nc1cc(Cl)cc(Cl)c1 | 131 to 132
27 | CCON=C(CC)C1=C(O)CC(c2ccc3c(c2)NC(=O)C(C)O3)CC1=O (stereo not drawn) | 144 to 146
28 | COc1cc2ncnc(Nc3cccc(Cl)c3F)c2cc1OC1CCN(C(=O)OC(C)(C)C)CC1 | 192 to 194
29 | Nc1cccc(C=C2NC(=O)NC2=O)c1 | 280 to 284
30 | COc1cc2c(c3c1OC(C)(C)C3)C(c1cccc(Nc3cccnc3)c1)=NC(C)(C)C2 | 204 to 205
31 | CCOCc1nc2c(N)nc3ccc(N4CCOC4=O)cc3c2n1CC(C)(C)O | 207 to 210
32 | CCCC1OCC(C)n2c1nc1c(N)nc3ccccc3c12 (stereo not drawn) | 243 to 268
33 | O=c1ccc(Cc2cccnc2)c[nH]1 | 142 to 144
34 | CCOC(=O)C1=C(C)NC(COCCN2C(=O)c3ccccc3C2=O)=C(C(=O)OC)C1c1cccc(Cl)c1Cl (stereo not drawn) | 165
35 | Cc1c(NC(=O)c2cc3c(s2)CCCC3)cccc1-c1cn(C)c(=O)c(Br)n1 | 240 to 241
36 | Cn1c(=O)c2c(Br)cccc2n2cnc(-c3noc(C4CC4)n3)c12 | 207
37 | CNc1ncc(-c2cc(Cl)cc(Cl)c2Cl)c(N)n1 | 155 to 157
38 | CN(C)c1ccc(C(=O)c2ccncc2)cc1 | 122 to 124
39 | CC(=O)Nc1nc(C)c(S(=O)(=O)NCCN(C)C)s1 | 143
40 | CC(C)(C)c1csc(N)c1C(N)=O | 145
41 | Cc1cc(C)cc(-c2cc3cnc(N)nc3nc2N)c1 | 298 to 302
42 | CCOc1nc(NCc2ccc(C)o2)nc(Nc2ccc(O)cc2)n1 | 40 to 42
43 | COC(=O)C1=C(C)NC(=O)N(C(=O)Oc2ccc([N+](=O)[O-])cc2)C1c1ccc(F)c(F)c1 (stereo not drawn) | 185 to 186
44 | CN(CC(=O)O)c1cc(Br)ccc1[N+](=O)[O-] | 152 to 155

Row | Structure (SMILES) | melting point [°C]
45 | Cc1nc(C)c(-c2[nH]nc3c2C(=O)c2c(NC(=O)NN4CCN(C)CC4)cccc2-3)s1 | 278
46 | O=C(c1cccc2c1NCC2)N1CCN(c2cccc(C(F)(F)F)c2)CC1 | 115 to 118
47 | CC(C)CCCC(C)NC(=O)CCC(=NNC(N)=S)c1ccccc1 (stereo not drawn) | 58 to 65
48 | CCOC(=O)CSc1ncnc2c(O)n(C(C)(C)C)nc12 | 129 to 131
49 | CC(C)(C)OC(=O)NNC(=O)N1CCC(Br)C1=O (stereo not drawn) | 122 to 123
50 | N#Cc1cccc2c1C(=O)C(O)=C(O)C2=O | 305 to 312
51 | Oc1cccc2ccc(N3CCN(c4nc5ccc(C(F)(F)F)cc5[nH]4)CC3)nc12 | 191 to 193
52 | C=C1C(O)C(CO)OC1n1cc(I)c(N)nc1=O (stereo not drawn) | 159 to 161
53 | COc1ccccc1N1CCN(CCn2c(=O)[nH]c3ccsc3c2=O)CC1 | 222 to 223
54 | CN(C)C(=N[N+](=O)[O-])N(C)Cc1ccc(Cl)nc1 | 99 to 101
55 | CCOCc1nc2c(N)nc(C)c(C)c2n1CCNC(=O)C(C)C | 172 to 174
56 | CC(C)(C)c1cc(-c2nc(O)ns2)cc(C(C)(C)C)c1O | 230 to 232
57 | CCCCCCCCCCCCCCCCn1c2cc(Cl)ccc2c2ccc(Cl)cc21 | 82 to 83
58 | O=S(=O)(c1ccc(Br)s1)N1CCN(c2ccc(F)cc2)CC1 | 123 to 124
59 | COc1cc(I)c(C(C)=O)cc1O | 109 to 111
60 | COc1ccc(NC(C)CC(=O)NC(=O)OC(C)(C)C)cc1 (stereo not drawn) | 70 to 71
61 | NS(=O)(=O)c1cccc(-c2cccc(-c3nc(-c4ccc(Cl)cc4Cl)cc(C(F)(F)F)n3)c2)c1 | 202
62 | Cc1cc2c(c(C)c1NC(=O)CC(C)(C)C)CC(C)(C)O2 | 181 to 182
63 | O=C1CC(=C[N+](=O)[O-])Nc2ccccc2N1c1ccccc1 | 231 to 234
64 | CNc1cc(N2CCCNCC2)ccc1S(=O)(=O)c1cccc(F)c1 | 153 to 154

Results, then the molecule that gave them:

Row | melting point [°C] | Structure (SMILES)
65 | 140 to 142 | CC(Oc1ccc(Oc2cnc3cc(F)ccc3n2)cc1)C(=O)Nc1ccc(OC(F)(F)F)cc1 (stereo not drawn)
66 | 158 | O=[N+]([O-])C(c1ccccc1)(c1ccccc1)[N+](=O)[O-]
67 | 140 to 142 | CNS(=O)(=O)N1C[C@H](SC(c2ccccc2)(c2ccccc2)c2ccccc2)C[C@H]1COCc1ccccc1
68 | 216 to 218 | O=C(O)Cc1c(-c2ccccc2)c2cc3c(cc2oc1=O)CCC3
69 | 259 to 261 | O=C(O)[C@H](Cc1ccccc1)Nc1c(NCc2cccnc2)c(=O)c1=O
70 | 308 to 310 | COc1ccc(-c2nc3cccc(OC)c3c(=O)[nH]2)nc1-c1ccc(S(C)=O)cc1 (stereo not drawn)
71 | 105 | C=C(CS(=O)(=O)c1ccccc1)c1ccccc1
72 | 259 to 260 | O=C(NC1CCN(CCCOc2ccccc2C(=O)Nc2nnn[nH]2)CC1)c1ccccc1
73 | 136 to 137 | CNCCOc1ccc(NC(=O)c2ccc(N3CCNCC3)cc2)c(C)c1
74 | 202 | N#Cc1c(N)nc2ccc(N3CCN(Cc4ccccc4)CC3)cc2c1N=Cc1ccccc1
75 | 153 to 154 | COc1ccccc1-n1ccc(=O)c(-c2ccnn2-c2ccccc2)n1
76 | 88 | COc1ccccc1CC(=NCc1cccs1)N1C[C@@H]2C(=O)CCC(c3ccccc3)(c3ccccc3)[C@@H]2C1
77 | 182 to 183 | O=C(Nc1cccc(C(=O)O)c1OCc1ccccc1Cl)c1ccccc1Cl
78 | 283 | COc1ccc(C2Cc3ccccc3-c3nc(N)c4ccccc4c32)c(OC)c1OC (stereo not drawn)
79 | 107 to 109 | CC(Cc1ccc(C(=O)c2ccc(Cl)cc2)cc1)S(=O)(=O)C(F)(F)F (stereo not drawn)
80 | 116 to 117 | CCOC(=O)COc1ccccc1-c1nc2n(C3CCCC3)[nH]c(CC)c-2c(=O)n1
81 | 106 to 108 | NCC(=NNc1ccccc1)c1ccccc1

Row | melting point [°C] | Structure (SMILES)
82 | 129 to 130 | COc1ccc(C2CC(=O)CC(c3ccc(OC)cc3)N2C)cc1 (stereo not drawn)
83 | 132 to 134 | CCC(C)(Oc1ccc(OCc2cc(-c3ccc(OCc4ccccc4)cc3)no2)cc1)C(=O)O (stereo not drawn)
84 | 103 to 112 | COc1cc(C2CCN(C(=O)C3CCN3)CC2)ccc1Nc1ncc2ccc(-c3ccccc3OC)n2n1 (stereo not drawn)
85 | 189 to 190 | COc1ccc(C(=O)Nc2ccccc2)cc1NS(=O)(=O)c1cc(Cl)sc1Cl
86 | 160 to 162 | Nc1sc2c(c1C(=O)c1ccccc1)CCNC2
87 | 185 to 188 | Cc1ccccc1C(=O)Nc1ccc(C(=O)N2CCCC(OCCO)c3cc(Cl)ccc32)cc1 (stereo not drawn)
88 | 166 | O=S1(=O)c2cccc3cccc(c23)N1CCN1CCC(CC2C=Cc3ccccc32)CC1 (stereo not drawn)
89 | 206 to 207 | CC(=O)c1ccc2c(c1)C(=O)c1ccccc1CN2
90 | 128 to 129 | CCOC(=O)c1ncc2[nH]c3ccc(Oc4ncccn4)cc3c2c1COC
91 | 181 to 182 | NC(=O)c1ncn(Cc2ccccc2)c1NC(=S)NC(=O)c1ccccc1
92 | 178 to 180 | Cc1oc(-c2ccc(F)cc2)nc1COc1cccc2cc(NS(=O)(=O)C(F)(F)F)ccc12
93 | 138 to 140 | Nc1ccc(OC[C@@H]2CCCN2c2ccc3ccccc3n2)cc1
94 | 145 to 147 | O=C(O)COc1ccc(SCc2ccc(OCc3ccccc3)cc2)c2c1CCC2
95 | 127 to 129 | CCCCC1C(C(=O)/C=C/c2ccc(OC)cc2)C(=O)CC(c2ccc(OC)cc2)C1[N+](=O)[O-] (stereo not drawn)
96 | 168 | CCCC(c1ccc(C(=O)Nc2ccccc2)cc1OCc1ccc(Br)cc1)n1ccnc1 (stereo not drawn)
97 | 151 | COc1ccccc1CNc1ccc2cc(Nc3cccc(C(F)(F)F)n3)ccc2n1
98 | 233 | Cc1ccc(S(=O)(=O)c2ccc(C(F)(F)F)cc2NC(=O)N[C@@H](Cc2ccc(NC(=O)c3c(Cl)cccc3Cl)cc2)C(=O)O)cc1
